Results: patent US11066406B2, “Small molecule inhibitors of the JAK family of kinases” (Janssen Pharmaceutica NV, priority 2018, dated 2021)
Values joined by “and” are separate entries in the source; they are usually repeats but may differ in a detail not shown here. Identical values can stand only once. Marks after values point to notes of the source that are not given here.

Experiments:
[1] = In vivo p.o. dosing (Protocols 1 and 2): plasma and colon concentrations; design: species or system C57BL/6 mice; details: mice, 25 mg/kg p.o. in 20% HPβCD; for Plasma Concentration After p.o. Dosing, Time = 0.5 h, Mean: 0.5 h post dose; for Plasma Concentration After p.o. Dosing, Time = 2 h, Mean: 2 h post dose; for Plasma Concentration After p.o. Dosing, Time = 4 h, Mean: 4 h post dose; for Colon Concentration After p.o. Dosing, Time = 4 h, Mean: colon 4 h post dose
Method: These protocols are described below under the heading In vivo Studies.
(§1) Three non-fasted female C57BL/6 mice were orally administered test compound at a dose of 25 mg/kg p.o. as a solution in 20% hydroxypropyl-beta-cyclodextrin (HPβCD) at a dose volume of 5 mL/kg. Blood samples were collected at 0.5, 2, and 4 h post dose via retro-orbital bleed or venipuncture of the dorsal metatarsal vein. Blood samples were collected into tubes containing anticoagulant (Heparin-Na) and placed on wet ice. The plasma fraction was separated by centrifugation and frozen at −20° C. for up to 4 h and −80° C. after 4 h unless analyzed shortly after sample collection. Colon samples were collected at 4 h post dose. From the beginning of the cecum, a 4-6 cm sample of the colon was dissected, cut open on the longitudinal axis, and the solid contents removed by flushing with 2 mL of saline. The colon was further washed by putting it in 5 mL of saline and shaken for 5 seconds. The colon sample was then patted dry, weighed, and homogenized as 1 part tissue (g) to 4 parts HPLC grade water (mL). Concentrations of the compound in plasma and colon homogenate were determined using a qualified liquid chromatography-triple quadrupole mass spectrometry (LC-MS/MS) method.
as §1, with “HPβCD” for “hydroxypropyl-beta-cyclodextrin (HPβCD)”, “or” for “or venipuncture of the”, “2 cm below” for “the beginning of”, “4” for “4-6”

[2] = In vivo intracolonic (i.c.) dosing (Protocol 3): plasma and colon concentrations; design: species or system C57BL/6 mice; details: mice, 5 mg/kg intracolonic in 20% HPβCD; for Plasma Concentration After i.c. Dosing, Time = 2 h, Mean: 2 h post dose; for Plasma Concentration After i.c. Dosing, Time = 4 h, Mean: 4 h post dose
Excerpt: Plasma and colon concentration results were obtained by following Protocol 1 using venipuncture of dorsal metatarsal vein bleed for Compounds (B), (C), and Examples 6 and 11. Plasma and colon concentration results were obtained by following Protocol 2 using retro-orbital bleed for Compounds (A), and Examples 1, and 3-5 and Protocol 2 using venipuncture of the dorsal metatarsal vein for Examples 2, 7-10, and 12. Plasma and colon concentration results were obtained by following Protocol 3 for Examples 1, 3 and 4. These protocols are described below under the heading In vivo Studies.
Intracolonic (IC) dose group: Following anesthesia with isoflurane by inhalation, three non-fasted female C57BL/6 mice were administered the compound intracolonically through a small incision in the abdominal wall using a syringe and needle at a dose of 5 mg/kg as a solution in 20% HPβCD at a dose volume of 1 mL/kg. Blood samples were collected at 0.5, 2, and 4 h post dose via retro-orbital bleed. Blood samples were collected into tubes containing anticoagulant (Heparin-Na) and placed on wet ice. The plasma fraction was separated by centrifugation and frozen at −20° C. for up to 4 h and −80° C. after 4 h unless analyzed shortly after sample collection. Colon samples were collected at 4 h post dose. From 2 cm below the cecum, a 4-cm sample of the colon was dissected, cut open on the longitudinal axis, and the solid contents removed by flushing with 2 mL of saline. The colon was further washed by putting it in 5 mL of saline and shaken for 5 seconds. The colon sample was then patted dry, weighed, and homogenized as 1 part tissue (g) to 4 parts HPLC grade water (mL). Concentrations of the compound in plasma and colon homogenate were determined using a qualified liquid chromatography-triple quadrupole mass spectrometry (LC-MS/MS) method. This protocol was used to evaluate IC dosing of the following test compounds: Examples 1, 3, and 4.

MDCK-MDR1 cell line = assay: MDCK-MDR1 permeability assay; assay type: in vitro ADME; details: apical-to-basolateral, with P-gp inhibitor elacridar (2 μM), 60 min
Method: Permeability measurements were conducted according to the Cyprotex protocol using the MDCK-MDR1 cell line obtained from the NIH (Rockville, Md., USA). […] The cells in this assay form a cohesive sheet of a single cell layer filing the surface area of the culture dish, also known as a confluent monolayer, and on day four the test compound was added to the apical side of the membrane and the transport of the compound across the monolayer was monitored over a time period of 60 min.
Test compounds were dissolved in DMSO at a concentration of 10 mM. The dosing solutions were prepared by diluting test compound with assay buffer (Hanks Balanced Salt Solution), pH 7.4, at a final concentration of 5 μM. For assessment of apical to basolateral (“A-B”) permeability, buffer was removed from the apical compartment and replaced with test compound dosing solution with or without the permeability glycoprotein (“PgP”, “P-gP”, “Pgp” or “P-gp”) inhibitor elacridar (2 μM). For assessment of basolateral to apical (“B-A”) permeability, buffer was removed from the companion plate and replaced with test compound dosing solution. Incubations were carried out in duplicate at 37° C. in an atmosphere of 5% CO2 with a relative humidity of 95%. Each assay included the reference markers propranolol (high permeability) and prazosin (PgP substrate). After incubation for 60 minutes, apical and basolateral samples were diluted and test compounds quantified by LC/MS/MS using an 8-point calibration in the range 0.0039 to 3 μM with appropriate dilution of the samples (receiver dilution factor=1; donor and Co dilution factor=10). The permeability coefficient (Papp) for each compound was calculated from the following equation: Papp=(dQ/dt)/(C0×S), where dQ/dt is the rate of permeation of the drug across the cells, Co is the donor compartment concentration at time zero, and S is the area of the cell monolayer.
Papp(A-B) gives an indication of permeation extent across the cells in this assay, which is envisaged to model the transcellular transport across Pgp-expressing cells, such as Pgp-expressing gastrointestinal tract cells.

Row | Plasma Concentration After p.o. Dosing, Time = 4 h, Mean [1] | MDCK-MDR1 P^eapp(A-B) @ 5 μM (MDCK-MDR1 cell line) | SMILES | also measured
1 | 84.5 ng/mL |  | Cc1nc2cnc3[nH]ccc3c2n1[C@H]1CC[C@H](CC#N)CC1 [A] | Plasma Concentration After p.o. Dosing, Time = 0.5 h, Mean [1]: 347.0 ng/mL; Plasma Concentration After p.o. Dosing, Time = 2 h, Mean [1]: 69.1 ng/mL; Colon Concentration After p.o. Dosing, Time = 4 h, Mean [1]: 895.0 ng/g
2 | 11.3 ng/mL |  | N#CC[C@H]1CC[C@H](n2c(CO)nc3cnc4[nH]ccc4c32)CC1 [B] | Plasma Concentration After p.o. Dosing, Time = 0.5 h, Mean [1]: 352.7 ng/mL; Plasma Concentration After p.o. Dosing, Time = 2 h, Mean [1]: 66.3 ng/mL; Colon Concentration After p.o. Dosing, Time = 4 h, Mean [1]: 6076.7 ng/g
3 | 16.7 ng/mL |  | C[C@@H](O)c1nc2cnc3[nH]ccc3c2n1[C@H]1CC[C@H](CC#N)CC1 [C] | Plasma Concentration After p.o. Dosing, Time = 0.5 h, Mean [1]: 547.0 ng/mL; Plasma Concentration After p.o. Dosing, Time = 2 h, Mean [1]: 130.2 ng/mL; Colon Concentration After p.o. Dosing, Time = 4 h, Mean [1]: 7776.7 ng/g
4 |  |  | CC(C)(O)CNC(=O)Cc1nc2cnc3[nH]ccc3c2n1[C@H]1CC[C@H](CC#N)CC1 [Ex. 1, 2-(1-((1r,4r)-4-(Cyanomethyl)cyclohexyl)-1,6-dihydroimidazo[4,5-d]pyrrolo[2,3-b]pyridin-2-yl)-N-(2-hydroxy-2-methylpropyl)acetamide] | Plasma Concentration After i.c. Dosing, Time = 2 h, Mean [2]: ^∧; Plasma Concentration After i.c. Dosing, Time = 4 h, Mean [2]: ^∧
5 |  | 1.6 10^−6 cm/sec | N#CCC1CCC(n2c(-c3c[nH]cn3)nc3cnc4[nH]ccc4c32)CC1 (stereo not shown) [Ex. 2, 2-((1r,4r)-4-(2-(1H-Imidazol-4-yl)imidazo[4,5-d]pyrrolo[2,3-b]pyridin-1(6H)-yl)cyclohexyl)acetonitrile] | 
6 |  | 2.3 10^−6 cm/sec and 1.6 10^−6 cm/sec | N#CC[C@H]1CC[C@H](n2c(CC(=O)NCC3CC3)nc3cnc4[nH]ccc4c32)CC1 [Ex. 3, 2-(1-((1r,4r)-4-(Cyanomethyl)cyclohexyl)-1,6-dihydroimidazo[4,5-d]pyrrolo[2,3-b]pyridin-2-yl)-N-(cyclopropylmethyl)acetamide] | Plasma Concentration After i.c. Dosing, Time = 2 h, Mean [2]: ^∧; Plasma Concentration After i.c. Dosing, Time = 4 h, Mean [2]: ^∧
7 |  | 0.5 10^−6 cm/sec | N#CCCNC(=O)Cc1nc2cnc3[nH]ccc3c2n1[C@H]1CC[C@H](CC#N)CC1 [Ex. 4, N-(2-Cyanoethyl)-2-(1-((1r,4r)-4-(cyanomethyl)cyclohexyl)-1,6-dihydroimidazo[4,5-d]pyrrolo[2,3-b]pyridin-2-yl)acetamide] | Plasma Concentration After i.c. Dosing, Time = 4 h, Mean [2]: ^∧
8 |  | 0.7 10^−6 cm/sec and 0.5 10^−6 cm/sec | N#CC[C@H]1CC[C@H](n2c(CC(=O)NC3CCOCC3)nc3cnc4[nH]ccc4c32)CC1 [Ex. 5, 2-(1-((1r,4r)-4-(cyanomethyl)cyclohexyl)-1,6-dihydroimidazo[4,5-d]pyrrolo[2,3-b]pyridin-2-yl)-N-(tetrahydro-2H-pyran-4-yl)acetamide] | 
9 | 1.7^# ng/mL | 0.9 10^−6 cm/sec and 1.1 10^−6 cm/sec | N#CC[C@H]1CC[C@H](n2c(CC(=O)NCC3CCOCC3)nc3cnc4[nH]ccc4c32)CC1 [Ex. 6, 2-(1-((1r,4r)-4-(Cyanomethyl)cyclohexyl)-1,6-dihydroimidazo[4,5-d]pyrrolo[2,3-b]pyridin-2-yl)-N-((tetrahydro-2H-pyran-4-yl)methyl)acetamide] | 
10 |  | 1.2 10^−6 cm/sec | CC(C)(C#N)CNC(=O)Cc1nc2cnc3[nH]ccc3c2n1[C@H]1CC[C@H](CC#N)CC1 [Ex. 7, N-(2-Cyano-2-methylpropyl)-2-(1-((1r,4r)-4-(cyanomethyl)cyclohexyl)-1,6-dihydroimidazo[4,5-d]pyrrolo[2,3-b]pyridin-2-yl)acetamide] | 
11 |  | 0.5 10^−6 cm/sec | N#CC[C@H]1CC[C@H](n2c(CC(=O)NCC3(O)CCC3)nc3cnc4[nH]ccc4c32)CC1 [Ex. 8, 2-(1-((1r,4r)-4-(Cyanomethyl)cyclohexyl)-1,6-dihydroimidazo[4,5-d]pyrrolo[2,3-b]pyridin-2-yl)-N-((1-hydroxycyclobutyl)methyl)acetamide] | 
12 |  | 0.6 10^−6 cm/sec | Cn1cc(NC(=O)Cc2nc3cnc4[nH]ccc4c3n2[C@H]2CC[C@H](CC#N)CC2)cn1 [Ex. 9, 2-(1-((1r,4r)-4-(Cyanomethyl)cyclohexyl)-1,6-dihydroimidazo[4,5-d]pyrrolo[2,3-b]pyridin-2-yl)-N-(1-methyl-1H-pyrazol-4-yl)acetamide] | 
13 |  | 1.1 10^−6 cm/sec | N#CCC12CCC(NC(=O)Cc3nc4cnc5[nH]ccc5c4n3[C@H]3CC[C@H](CC#N)CC3)(CC1)C2 [Ex. 10, N-(4-(Cyanomethyl)bicyclo[2.2.1]heptan-1-yl)-2-(1-((1r,4r)-4-(cyanomethyl)cyclohexyl)-1,6-dihydroimidazo[4,5-d]pyrrolo[2,3-b]pyridin-2-yl)acetamide] | 
14 | ^∧ | 0.8 10^−6 cm/sec | N#CC[C@H]1CC[C@H](n2c(CC(=O)Nc3cc[nH]n3)nc3cnc4[nH]ccc4c32)CC1 [Ex. 11, 2-(1-((1r,4r)-4-(Cyanomethyl)cyclohexyl)-1,6-dihydroimidazo[4,5-d]pyrrolo[2,3-b]pyridin-2-yl)-N-(1H-pyrazol-3-yl)acetamide] | Plasma Concentration After p.o. Dosing, Time = 2 h, Mean [1]: ^∧
15 |  | 0.6 10^−6 cm/sec | N#CC[C@H]1CC[C@H](n2c(CC(=O)NCC3(O)CC3)nc3cnc4[nH]ccc4c32)CC1 [Ex. 12, 2-(1-((1r,4r)-4-(Cyanomethyl)cyclohexyl)-1,6-dihydroimidazo[4,5-d]pyrrolo[2,3-b]pyridin-2-yl)-N-((1-hydroxycyclopropyl)methyl)acetamide] | 
